Values joined by “and” are separate entries in the source; they are usually repeats but may differ in a detail not shown here. Equal values may be shown once. “Also recorded” adds a separate entry of the source. Read-outs that look alike come from different tables or passages of the source.
Tests used:
[1] = Isomerization in binding assay medium; assay type: physicochemical; conditions: for proportion of isomer in the mixture: 100 h time-point, regardless which isomer was used at the beginning; for isomerization kinetics in binding assay medium: room temperature
[2] = Stability / isomerization in organic solvents; conditions: CH2Cl2, THF, EtOAc, DMSO
[3] = biological target: recombinant human His-tagged MDM2 protein (residues 1–118) (Homo sapiens, UniProt Q00987); experiment: FP-based competitive protein binding assay
[4] = tested on: SJSA-1 osteosarcoma cell line; experiment: cells; conditions: Homo sapiens, read-out: IC50 cell growth inhibition
[5] = Interconversion of isomers in MeCN-H2O; assay type: physicochemical; conditions: for isomerization in CH3CN-H2O: over a period of up to four days
[6] = tested on: SJSA-1 osteosarcoma tumor xenograft; assay type: in vivo; conditions: for tumor growth inhibition as compared to vehicle control: end of treatment (day 26); for weight loss or other signs of toxicity: 5a 200 mg/kg, 5b 100 and 200 mg/kg daily oral 14 days
[7] = tested on: p53 activation in SJSA-1 tumor tissue; experiment: Pharmacodynamic study, Western blotting of tumor tissue; assay type: in vivo, mouse; conditions: single oral dose 200 mg/kg; for p53 activation in tumor tissue (accumulation of p53, MDM2 and p21): Western blot
[8] = Isomerization in vivo in plasma and tumor tissue; conditions: plasma and tumor tissue of SCID mice
[9] = Tumor tissue concentration in tumor bearing SCID mice; conditions: for Tumor Concentration of isomer: single oral 100 mg/kg, 24 h
[10] = Plasma concentration in tumor bearing SCID mice; conditions: for Plasma Concentration of isomer: single oral 100 mg/kg, 24 h
[11] = Isomerization in cell culture medium; assay type: physicochemical; conditions: 2 days, starting from 5a or 5b
[12] = tested on: animal models of human cancer; conditions: ref 6b; cited from earlier work
MDM2 = conditions: ref 6b; cited from earlier work
[13] = binding assay medium, after 12 days
[14] = FP competitive binding to MDM2, incubation 15 min
[15] = calculated from IC50, FP competitive binding to MDM2, incubation 15 min

CN(C)C(=O)[C@@H]1N[C@H](CC(C)(C)C)[C@]2(C(=O)Nc3cc(Cl)ccc32)[C@H]1c1cccc(Cl)c1 [1a, (2′R,3S,4′R,5′R)-6-chloro-4′-(3-chlorophenyl)-N,N-dimethyl-2′-neopentyl-2-oxospiro[indoline-3,3′-pyrrolidine]-5′-carboxamide]
remaining of starting isomer [1, 13]: 17.6%
converted into 1b ([1]; binding assay medium, after 12 days, started with 1a): 53%
stability in aprotic solvents [2]: relatively stable

CN(C)C(=O)[C@@H]1N[C@@H](CC(C)(C)C)[C@@]2(C(=O)Nc3cc(Cl)ccc32)[C@H]1c1cccc(Cl)c1 [1b, (2′S,3R,4′R,5′R)-6-chloro-4′-(3-chlorophenyl)-N,N-dimethyl-2′-neopentyl-2-oxospiro[indoline-3,3′-pyrrolidine]-5′-carboxamide]
remaining of starting isomer [1, 13]: 93.9%

CNC(=O)[C@@H]1N[C@H](CC(C)(C)C)[C@]2(C(=O)Nc3cc(Cl)ccc32)[C@H]1c1cccc(Cl)c1 [2a, (2′R,3S,4′R,5′R)-6-chloro-4′-(3-chlorophenyl)-N-methyl-2′-neopentyl-2-oxospiro[indoline-3,3′-pyrrolidine]-5′-carboxamide]
IC50 [3]: 565 ± 57 nM
Ki [3]: 76.2 ± 7.7 nM

CNC(=O)[C@@H]1N[C@@H](CC(C)(C)C)[C@@]2(C(=O)Nc3cc(Cl)ccc32)[C@H]1c1cccc(Cl)c1 [2b, (2′S,3R,4′R,5′R)-6-chloro-4′-(3-chlorophenyl)-N-methyl-2′-neopentyl-2-oxospiro[indoline-3,3′-pyrrolidine]-5′-carboxamide]
IC50 [3]: 30.9 ± 2.9 nM
Ki [3]: 3.1 ± 0.3 nM

CNC(=O)[C@@H]1N[C@H](CC(C)(C)C)[C@]2(C(=O)Nc3cc(Cl)ccc32)[C@H]1c1cccc(Cl)c1F [4a, (2′R,3S,4′S,5′R)-6-chloro-4′-(3-chloro-2-fluorophenyl)-Nmethyl-2′-neopentyl-2-oxospiro[indoline-3,3′-pyrrolidine]-5′-carboxamide]
IC50 [3, 14]: 387 ± 39 nM
Ki [3, 15]: 51.8 ± 4.2 nM

CNC(=O)[C@@H]1N[C@@H](CC(C)(C)C)[C@@]2(C(=O)Nc3cc(Cl)ccc32)[C@H]1c1cccc(Cl)c1F [4b, (2′S,3R,4′S,5′R)-6-chloro-4′-(3-chloro-2-fluorophenyl)-Nmethyl-2′-neopentyl-2-oxospiro[indoline-3,3′-pyrrolidine]-5′-carboxamide]
IC50 [3, 14]: 25.9 ± 1.5 nM
Ki [3, 15]: 2.4 ± 0.2 nM
times more potent than the respective isomer a (binding to MDM2) ([3]; cis-cis isomer b versus trans-cis isomer a): > 15 times

CC(C)(C)C[C@H]1N[C@@H](C(=O)NCC[C@H](O)CO)[C@H](c2cccc(Cl)c2F)[C@@]12C(=O)Nc1cc(Cl)ccc12 [5a, (2′R,3S,4′S,5′R)-6-chloro-4′-(3-chloro-2-fluorophenyl)-N-((S)-3,4-dihydroxybutyl)-2′-neopentyl-2-oxospiro[indoline-3,3′-pyrrolidine]-5′-carboxamide]
IC50 ([4]; SJSA-1, 24 h): 30300 ± 6230 nM
IC50 ([4]; SJSA-1, 48 h): 950 ± 160 nM
IC50 ([4]; SJSA-1, 72 h): 180 ± 20 nM
IC50 ([4]; SJSA-1, 96 h): 150 ± 30 nM
proportion of isomer in the mixture ([1]; binding assay medium): ~40%
isomerization in CH3CN-H2O [5]: gradually converted into a mixture of four isomers
tumor growth inhibition as compared to vehicle control ([6]; 200 mg/kg daily oral gavage 14 days): 41%
weight loss or other signs of toxicity [6]: no significant weight loss
p53 activation in tumor tissue (accumulation of p53, MDM2 and p21) [7]: effectively activated p53
isomerization in vivo [8]: isomerizes very fast
Tumor Concentration of isomer ([9]; dosed with 5a): BLQ
Tumor Concentration of isomer ([9]; dosed with 5b): BLQ
Plasma Concentration of isomer ([10]; dosed with 5a): BLQ
Plasma Concentration of isomer ([10]; dosed with 5b): BLQ ^b

CC(C)(C)C[C@@H]1N[C@@H](C(=O)NCC[C@H](O)CO)[C@H](c2cccc(Cl)c2F)[C@]12C(=O)Nc1cc(Cl)ccc12 [5b, (2′S,3R,4′S,5′R)-6-chloro-4′-(3-chloro-2-fluorophenyl)-N-((S)-3,4-dihydroxybutyl)-2′-neopentyl-2-oxospiro[indoline-3,3′-pyrrolidine]-5′-carboxamide]
IC50 ([4]; SJSA-1, 24 h): 18100 ± 2400 nM
IC50 ([4]; SJSA-1, 48 h): 630 ± 40 nM
IC50 ([4]; SJSA-1, 72 h): 180 ± 10 nM
proportion of isomer in the mixture ([1]; binding assay medium): approximately 50%
isomerization kinetics in binding assay medium [1]: slow isomerization kinetic and was the most stable
converted into a mixture of three other isomers ([5]; CH3CN-H2O, after 12 days): 4%
tumor growth inhibition as compared to vehicle control ([6]; 100 mg/kg daily oral gavage 14 days): 67%
weight loss or other signs of toxicity [6]: no significant weight loss
apoptosis induction in tumor tissue (PARP cleavage, caspase-3 activation) ([7]; 24 h): stronger apoptosis induction than 5a
p53 activation in tumor tissue (accumulation of p53, MDM2 and p21) ([7]; 200 mg/kg): effectively activated p53; also recorded: clearly more potent than 5a
isomerization in vivo [8]: isomerizes slowly
Tumor Concentration of isomer ([9]; dosed with 5a): BLQ
Tumor Concentration of isomer ([9]; dosed with 5b): BLQ
tumor tissue concentration of 5b in mice dosed with 5b versus mice dosed with 5a ([9]; mouse, in vivo): 11 fold and 16 fold
proportion of 5b of all 4 isomers [11]: approximately 50%
Plasma Concentration of isomer ([10]; dosed with 5a): BLQ
plasma concentration of 5b in mice dosed with 5b versus mice dosed with 5a ([10]; mouse, in vivo): 7 fold and 12 fold

CC(C)(C)C[C@@H]1N[C@@H](C(=O)NCC[C@H](O)CO)[C@H](c2cccc(Cl)c2F)[C@@]12C(=O)Nc1cc(Cl)ccc12 [5c, (2′S,3S,4′S,5′R)-6-chloro-4′-(3-chloro-2-fluorophenyl)-N-((S)-3,4-dihydroxybutyl)-2′-neopentyl-2-oxospiro[indoline-3,3′-pyrrolidine]-5′-carboxamide]
isomerized into 5b ([1]; binding assay medium, within 30 min): approximately 20%
isomerization kinetics in binding assay medium [1]: very fast isomerization kinetics
isomerization in CH3CN-H2O [5]: gradually converted into a mixture of four isomers

CC(C)(C)C[C@H]1N[C@@H](C(=O)NCC[C@H](O)CO)[C@H](c2cccc(Cl)c2F)[C@]12C(=O)Nc1cc(Cl)ccc12 [5d, (2′R,3R,4′S,5′R)-6-chloro-4′-(3-chloro-2-fluorophenyl)-N-((S)-3,4-dihydroxybutyl)-2′-neopentyl-2-oxospiro[indoline-3,3′-pyrrolidine]-5′-carboxamide]
isomerization in CH3CN-H2O [5]: gradually converted into a mixture of four isomers

CCOC(=O)[C@@H]1N[C@H](CC(C)(C)C)[C@]2(C(=O)Nc3cc(Cl)ccc32)[C@H]1c1cccc(Cl)c1F [7a, (2′R,3S,4′S,5′R)-ethyl 6-chloro-4′-(3-chloro-2-fluorophenyl)-2′-neopentyl-2-oxospiro[indoline-3,3′-pyrrolidine]-5′-carboxylate]
IC50 [3]: 19500 ± 4000 nM
Ki [3]: 2700 ± 500 nM

CCOC(=O)[C@@H]1N[C@@H](CC(C)(C)C)[C@@]2(C(=O)Nc3cc(Cl)ccc32)[C@H]1c1cccc(Cl)c1F [7b, (2′S,3R,4′S,5′R)-ethyl 6-chloro-4′-(3-chloro-2-fluorophenyl)-2′-neopentyl-2-oxospiro[indoline-3,3′-pyrrolidine]-5′-carboxylate]
IC50 [3]: 721 ± 79 nM
Ki [3]: 97.5 ± 10.7 nM

CC(C)(C)C[C@H]1N[C@@H](C(=O)O)[C@H](c2cccc(Cl)c2F)[C@@]12C(=O)Nc1cc(Cl)ccc12 [8a, (2′R,3S,4′S,5′R)-6-chloro-4′-(3-chloro-2-fluorophenyl)-2′-neopentyl-2-oxospiro[indoline-3,3′-pyrrolidine]-5′-carboxylic acid]
IC50 [3]: 498 ± 44 nM
Ki [3]: 67 ± 5.9 nM

CC(C)(C)C[C@@H]1N[C@@H](C(=O)O)[C@H](c2cccc(Cl)c2F)[C@]12C(=O)Nc1cc(Cl)ccc12 [8b, (2′S,3R,4′S,5′R)-6-chloro-4′-(3-chloro-2-fluorophenyl)-2′-neopentyl-2-oxospiro[indoline-3,3′-pyrrolidine]-5′-carboxylic acid]
IC50 [3]: 55.1 ± 5.2 nM
Ki [3]: 6.4 ± 0.6 nM

CC(C)(C)C[C@@H]1N[C@@H](C(N)=O)[C@H](c2cccc(Cl)c2F)[C@]12C(=O)Nc1cc(Cl)ccc12 [9b, (2′S,3R,4′S,5′R)-6-chloro-4′-(3-chloro-2-fluorophenyl)-2′-neopentyl-2-oxospiro[indoline-3,3′-pyrrolidine]-5′-carboxamide]
IC50 [3]: 22.5 ± 2.2 nM
Ki [3]: 1.9 ± 0.2 nM

CN(C)C(=O)[C@@H]1N[C@@H](CC(C)(C)C)[C@@]2(C(=O)Nc3cc(Cl)c(F)cc32)[C@H]1c1cccc(Cl)c1 [10b, (2′S,3R,4′R,5′R)-6-chloro-4′-(3-chlorophenyl)-5-fluoro-N,Ndimethyl-2′-neopentyl-2-oxospiro[indoline-3,3′-pyrrolidine]-5′-carboxamide]
IC50 [3, 14]: 835 ± 121 nM
Ki [3, 15]: 113 ± 16 nM

CNC(=O)[C@@H]1N[C@@H](CC(C)(C)C)[C@@]2(C(=O)Nc3cc(Cl)c(F)cc32)[C@H]1c1cccc(Cl)c1 [11b, (2′S,3R,4′R,5′R)-6-chloro-4′-(3-chlorophenyl)-5-fluoro-Nmethyl-2′-neopentyl-2-oxospiro[indoline-3,3′-pyrrolidine]-5′-carboxamide]
IC50 [3, 14]: 112 ± 12 nM
Ki [3, 15]: 14.2 ± 1.1 nM

CC(C)(C)C[C@H]1N[C@@H](C(=O)NCC[C@H](O)CO)[C@H](c2cccc(Cl)c2)[C@@]12C(=O)Nc1cc(Cl)c(F)cc12.Cl [MI-219]
tumor growth in animal models of human cancer [12]: strongly inhibits tumor growth
binding affinity to MDM2 (MDM2): low nanomolar affinity

From paper PMC3806051 (Journal of the American Chemical Society, 2013)
